From ChEMBL document CHEMBL6083277, “Discovery of SZJK-0421: A Novel Potent, Low Toxicity, Selective Second Generation of CRM1 Inhibitor for the Treatment of Both Hematological and Solid Tumors” (J Med Chem, 2024)
The source made the active and inactive calls. The rule behind the calls is not given here.

These compounds were tested on MM1.S (assay: Antiproliferative activity against human MM1.S cells assessed as inhibition of cell growth incubated for 72 hrs by celltiter-glo assay).
Format: functional, cell-based

Question: CONC(=O)/C(=C/n1cnc(-c2cc(C(F)(F)F)cc(C(F)(F)F)c2)n1)c1ccsc1 was tested. Which IC50 did it give?
Answer: The IC50 was 990 nM.

Question: With CONC(=O)/C(=C/n1cnc(-c2cc(OC(=O)CCNC(=O)CCCC[C@@H]3SC[C@@H]4NC(=O)N[C@@H]43)cc(C(F)(F)F)c2)n1)c1cncnc1 as the compound, how does the IC50 read?
Answer: The IC50 was 1700 nM.

Question: How did the IC50 turn out when NC(=O)/C(=C/c1cnn(-c2cc(C(F)(F)F)cc(C(F)(F)F)c2)c1)c1cncnc1 was run?
Answer: Its IC50 is 1750 nM.

Question: Which IC50 does the source give for NC(=O)/C(=C/n1cnc(-c2cc(C(F)(F)F)cc(C(F)(F)F)c2)n1)c1ccc(F)nc1 here?
Answer: Its IC50 is 1470 nM.

Question: With NC(=O)/C=C(\c1cncnc1)c1cnn(-c2cc(C(F)(F)F)cc(C(F)(F)F)c2)c1 as the compound, how does the Activity read?
Answer: The Activity was “inactive”.

Question: Which IC50 does the source give for NC(=O)/C(=C/c1cnn(-c2cc(C(F)(F)F)cc(C(F)(F)F)c2)c1)c1ccc(C(F)(F)F)nc1 here?
Answer: The IC50 was 1340 nM.

Question: Which IC50 does the source give for CONC(=O)/C(=C/n1cnc(-c2cc(C(F)(F)F)cc(C(F)(F)F)c2)n1)c1ccc(C#N)cc1 here?
Answer: Its IC50 is 1040 nM.

Question: Which Activity does the source give for N#Cc1ccc(/C(=C\C(N)=O)c2cnn(-c3cc(C(F)(F)F)cc(C(F)(F)F)c3)c2)cn1 here?
Answer: Its Activity is “inactive”.

Question: For CONC(=O)/C(=C/n1cnc(-c2cc(C(F)(F)F)nc(C(F)(F)F)c2)n1)c1ccc(C)nc1, which IC50 is on record?
Answer: Its IC50 is 207 nM.

Question: How did the Activity turn out when NC(=O)/C=C(\c1cncc(F)c1)c1cnn(-c2cc(C(F)(F)F)cc(C(F)(F)F)c2)c1 was run?
Answer: The Activity was “inactive”.

Question: How did the IC50 turn out when CONC(=O)/C(=C/n1cnc(-c2cc(C(F)(F)F)cc(C(F)(F)F)c2)n1)c1cnc(Cl)nc1 was run?
Answer: The IC50 was 485 nM.

Question: How did the IC50 turn out when CN(C)c1ncc(/C(=C\n2cnc(-c3cc(C(F)(F)F)cc(C(F)(F)F)c3)n2)C(N)=O)cn1 was run?
Answer: Its IC50 is 1310 nM.

Question: O=C(NCc1cccnc1)/C(=C/n1cnc(-c2cc(C(F)(F)F)cc(C(F)(F)F)c2)n1)c1cncnc1 was tested. Which IC50 did it give?
Answer: Its IC50 is 1400 nM.

Question: For NC(=O)/C(=C/n1cnc(-c2cc(C(F)(F)F)cc(C(F)(F)F)c2)n1)c1ccccc1, which IC50 is on record?
Answer: The IC50 was 346 nM.

Question: O=C(NC1CCOCC1)/C(=C/n1cnc(-c2cc(C(F)(F)F)cc(C(F)(F)F)c2)n1)c1cncnc1 was tested. Which IC50 did it give?
Answer: The IC50 was 142 nM.

Question: For O=C(NNc1cnccn1)/C(=C/n1cnc(-c2cc(C(F)(F)F)cc(C(F)(F)F)c2)n1)c1cncnc1, which IC50 is on record?
Answer: The IC50 was 328 nM.

Question: For CONC(=O)/C(=C/n1cnc(-c2cc(C(F)(F)F)cc(C(F)(F)F)c2)n1)c1ccc(OC)nc1, which IC50 is on record?
Answer: The IC50 was 166 nM.

Question: With O=C(NC12CC3CCC1CC(C3)C2)/C(=C/n1cnc(-c2cc(C(F)(F)F)cc(C(F)(F)F)c2)n1)c1cncnc1 (configuration not stated) as the compound, how does the IC50 read?
Answer: The IC50 was 323 nM.

Question: Which Activity does the source give for NC(=O)/C=C(\c1ccc(F)nc1)c1cnn(-c2cc(C(F)(F)F)cc(C(F)(F)F)c2)c1 here?
Answer: The Activity was “inactive”.

Question: NC(=O)/C=C(\c1ccncc1)c1cnn(-c2cc(C(F)(F)F)cc(C(F)(F)F)c2)c1 was tested. Which Activity did it give?
Answer: The Activity was “inactive”.

Question: With NC(=O)/C(=C/n1ccc(-c2cc(C(F)(F)F)cc(C(F)(F)F)c2)n1)c1ccc(C(F)(F)F)nc1 as the compound, how does the IC50 read?
Answer: The IC50 was 1920 nM.

Question: How did the IC50 turn out when NC(=O)/C(=C/n1cnc(-c2cc(C(F)(F)F)cc(C(F)(F)F)c2)n1)c1ccc(C(F)(F)F)nc1 was run?
Answer: The IC50 was 1660 nM.

Question: For O=C(NC1CCCCC1)/C(=C/n1cnc(-c2cc(C(F)(F)F)cc(C(F)(F)F)c2)n1)c1cncnc1, which IC50 is on record?
Answer: The IC50 was 572 nM.

Question: How did the IC50 turn out when CNC(=O)/C(=C/n1cnc(-c2cc(C(F)(F)F)cc(C(F)(F)F)c2)n1)c1cncnc1 was run?
Answer: Its IC50 is 189 nM.

Question: With Cc1ccc(/C(=C\c2cnn(-c3cc(C(F)(F)F)cc(C(F)(F)F)c3)c2)C(N)=O)cn1 as the compound, how does the Activity read?
Answer: Its Activity is “inactive”.

Question: For O=C(NC1CCCCCC1)/C(=C/n1cnc(-c2cc(C(F)(F)F)cc(C(F)(F)F)c2)n1)c1cncnc1, which IC50 is on record?
Answer: Its IC50 is 321 nM.

Question: With CC(C)(C)NNC(=O)/C(=C/n1cnc(-c2cc(C(F)(F)F)cc(C(F)(F)F)c2)n1)c1cncnc1 as the compound, how does the IC50 read?
Answer: Its IC50 is 332 nM.

Question: With CONC(=O)/C(=C/n1cnc(-c2cc(C(F)(F)F)cc(C(F)(F)F)c2)n1)c1cnc(OC)nc1 as the compound, how does the IC50 read?
Answer: Its IC50 is 244 nM.

Question: Which IC50 does the source give for NC(=O)/C(=C/n1cnc(-c2cc(C(F)(F)F)cc(C(F)(F)F)c2)n1)c1ccncc1 here?
Answer: Its IC50 is 128 nM.

Question: Which IC50 does the source give for CONC(=O)/C(=C/n1cnc(-c2cc(C(F)(F)F)nc(C(F)(F)F)c2)n1)c1cncnc1 here?
Answer: The IC50 was 198 nM.

Question: How did the IC50 turn out when O=C(NC1CC1)/C(=C/n1cnc(-c2cc(C(F)(F)F)cc(C(F)(F)F)c2)n1)c1cncnc1 was run?
Answer: Its IC50 is 178 nM.

Question: With N#Cc1ccc(/C(=C\c2cnn(-c3cc(C(F)(F)F)cc(C(F)(F)F)c3)c2)C(N)=O)cn1 as the compound, how does the IC50 read?
Answer: Its IC50 is 1410 nM.

Question: How did the IC50 turn out when COc1ncc(/C(=C\n2cnc(-c3cc(C(F)(F)F)cc(C(F)(F)F)c3)n2)C(N)=O)cn1 was run?
Answer: The IC50 was 646 nM.

Question: NC(=O)/C(=C/c1cnn(-c2cc(C(F)(F)F)cc(C(F)(F)F)c2)c1)c1ccncc1 was tested. Which Activity did it give?
Answer: Its Activity is “inactive”.

Question: How did the IC50 turn out when O=C(NC1CCCC1)/C(=C/n1cnc(-c2cc(C(F)(F)F)cc(C(F)(F)F)c2)n1)c1cncnc1 was run?
Answer: The IC50 was 292 nM.

Question: How did the IC50 turn out when CONC(=O)/C(=C/n1cnc(-c2cc(C(F)(F)F)cc(C(F)(F)F)c2)n1)c1ccncc1 was run?
Answer: The IC50 was 202 nM.

Question: With NC(=O)/C(=C/n1ccc(-c2cc(C(F)(F)F)cc(C(F)(F)F)c2)n1)c1ccncc1 as the compound, how does the IC50 read?
Answer: The IC50 was 1430 nM.

Question: With CONC(=O)/C(=C/n1cnc(-c2cc(C(F)(F)F)cc(C(F)(F)F)c2)n1)c1ccc(C#N)nc1 as the compound, how does the IC50 read?
Answer: Its IC50 is 185 nM.

Question: For O=C(NCc1ccccn1)/C(=C/n1cnc(-c2cc(C(F)(F)F)cc(C(F)(F)F)c2)n1)c1cncnc1, which IC50 is on record?
Answer: The IC50 was 1500 nM.

Question: COc1ncc(/C(=C\C(N)=O)c2cnn(-c3cc(C(F)(F)F)cc(C(F)(F)F)c3)c2)cn1 was tested. Which Activity did it give?
Answer: The Activity was “inactive”.

Question: For NC(=O)/C(=C/n1ccc(-c2cc(C(F)(F)F)cc(C(F)(F)F)c2)n1)c1cncnc1, which IC50 is on record?
Answer: Its IC50 is 1210 nM.

Question: How did the IC50 turn out when CONC(=O)/C(=C/n1cnc(-c2cc(C(F)(F)F)cc(C(F)(F)F)c2)n1)c1ccn(C)n1 was run?
Answer: Its IC50 is 1200 nM.

Question: Which Activity does the source give for Cc1ccc(/C(=C\C(N)=O)c2cnn(-c3cc(C(F)(F)F)cc(C(F)(F)F)c3)c2)cn1 here?
Answer: The Activity was “inactive”.

Question: Which Activity does the source give for CN(C)c1ncc(/C(=C\C(N)=O)c2cnn(-c3cc(C(F)(F)F)cc(C(F)(F)F)c3)c2)cn1 here?
Answer: Its Activity is “inactive”.

Question: For COc1ncc(/C(=C\c2cnn(-c3cc(C(F)(F)F)cc(C(F)(F)F)c3)c2)C(N)=O)cn1, which IC50 is on record?
Answer: The IC50 was 2260 nM.

Question: With NC(=O)/C(=C/c1cnn(-c2cc(C(F)(F)F)cc(C(F)(F)F)c2)c1)c1cncc(F)c1 as the compound, how does the IC50 read?
Answer: Its IC50 is 2360 nM.

Question: Which Activity does the source give for CN(C)c1ncc(/C(=C\c2cnn(-c3cc(C(F)(F)F)cc(C(F)(F)F)c3)c2)C(N)=O)cn1 here?
Answer: The Activity was “inactive”.

Question: How did the IC50 turn out when CON(C)C(=O)/C(=C/n1cnc(-c2cc(C(F)(F)F)cc(C(F)(F)F)c2)n1)c1cncnc1 was run?
Answer: Its IC50 is 75.7 nM.

Question: How did the IC50 turn out when NC(=O)/C(=C/n1cnc(-c2cc(C(F)(F)F)cc(C(F)(F)F)c2)n1)c1c[nH]c2ccccc12 was run?
Answer: Its IC50 is 313 nM.

Question: For NC(=O)/C=C(\c1ccc(C(F)(F)F)nc1)c1cnn(-c2cc(C(F)(F)F)cc(C(F)(F)F)c2)c1, which Activity is on record?
Answer: The Activity was “inactive”.

Question: For CCONC(=O)/C(=C/n1cnc(-c2cc(C(F)(F)F)cc(C(F)(F)F)c2)n1)c1cncnc1, which IC50 is on record?
Answer: Its IC50 is 111 nM.

Question: Which IC50 does the source give for NC(=O)/C(=C/n1cnc(-c2cc(C(F)(F)F)nc(C(F)(F)F)c2)n1)c1cncnc1 here?
Answer: The IC50 was 226 nM.

Question: How did the Activity turn out when Cc1cn(/C=C(/C(N)=O)c2cncnc2)nc1-c1cc(C(F)(F)F)cc(C(F)(F)F)c1 was run?
Answer: The Activity was “inactive”.

Question: How did the IC50 turn out when N#Cc1ccc(/C(=C\n2ccc(-c3cc(C(F)(F)F)cc(C(F)(F)F)c3)n2)C(N)=O)cn1 was run?
Answer: The IC50 was 880 nM.

Question: NC(=O)/C(=C/n1cnc(-c2cc(C(F)(F)F)cc(C(F)(F)F)c2)n1)c1cncc(F)c1 was tested. Which IC50 did it give?
Answer: The IC50 was 259 nM.

Question: Which IC50 does the source give for NC(=O)/C(=C/n1cnc(-c2cc(C(F)(F)F)cc(C(F)(F)F)c2)n1)c1cccc2cccnc12 here?
Answer: Its IC50 is 447 nM.

Question: How did the Activity turn out when Cc1ccc(/C(=C\n2cnc(-c3cc(C(F)(F)F)cc(C(F)(F)F)c3)n2)C(N)=O)cn1 was run?
Answer: The Activity was “inactive”.

Question: For N#Cc1ccc(/C(=C\n2cnc(-c3cc(C(F)(F)F)cc(C(F)(F)F)c3)n2)C(N)=O)cn1, which IC50 is on record?
Answer: Its IC50 is 176 nM.

Question: N#Cc1cn(/C=C(/C(N)=O)c2cncnc2)nc1-c1cc(C(F)(F)F)cc(C(F)(F)F)c1 was tested. Which IC50 did it give?
Answer: Its IC50 is 1220 nM.

Question: For Cc1ccc(/C(=C\n2cnc(-c3cc(C(F)(F)F)nc(C(F)(F)F)c3)n2)C(N)=O)cn1, which IC50 is on record?
Answer: The IC50 was 245 nM.

Question: How did the IC50 turn out when COC(=O)CNC(=O)/C(=C/n1cnc(-c2cc(C(F)(F)F)cc(C(F)(F)F)c2)n1)c1cncnc1 was run?
Answer: Its IC50 is 99.3 nM.

Question: With NC(=O)/C(=C/c1cnn(-c2cc(C(F)(F)F)cc(C(F)(F)F)c2)c1)c1ccc(F)nc1 as the compound, how does the Activity read?
Answer: Its Activity is “inactive”.
